Experimental findings from ChEMBL document CHEMBL3826909, “Quinoxaline-based inhibitors of Ebola and Marburg VP40 egress” (Bioorg Med Chem Lett, 2016) are described below.

Calls of active or inactive are those of the source. The calls are words filed in the database; no cut-off is given here. Where only a bound is given, the exact number is not on record here.

The term inhibition denotes the relative decrease from the control value, in per cent. The term IC50 denotes the concentration that inhibits the measured activity by half.

Data set [1] can be described thus: Cytotoxicity against human HEK293T cells assessed as cell viability at 10 uM after 24 hrs by MTT assay relative to control. Type of data set: cell-based, HEK-293T. To be noted: read-out: Activity.
Data set [2] in a line: Cytotoxicity against African green monkey Vero E6 cells assessed as cell viability at 10 uM after 24 hrs by MTT assay relative to control. As to conditions: chlorocebus sabaeus, read-out: Activity. Type of data set: cell-based. A general note: Tetrazolium assays rely on reduction of a dye to a coloured formazan, in cell work by metabolically active cells.
Data set [3] is described as follows: Cytotoxicity against African green monkey Vero E6 cells assessed as cell viability at 1 uM after 24 hrs by MTT assay relative to control. Type of data set: cell-based. To be noted: chlorocebus sabaeus, read-out: Activity.
For data set [4], the target named is T1, Matrix protein VP40 (Lake Victoria marburgvirus (strain Ravn-87) (MARV) (Marburg virus (strainKenya/Ravn/1987))) (UniProt Q1PDC8).
T1 sequence (whole entry): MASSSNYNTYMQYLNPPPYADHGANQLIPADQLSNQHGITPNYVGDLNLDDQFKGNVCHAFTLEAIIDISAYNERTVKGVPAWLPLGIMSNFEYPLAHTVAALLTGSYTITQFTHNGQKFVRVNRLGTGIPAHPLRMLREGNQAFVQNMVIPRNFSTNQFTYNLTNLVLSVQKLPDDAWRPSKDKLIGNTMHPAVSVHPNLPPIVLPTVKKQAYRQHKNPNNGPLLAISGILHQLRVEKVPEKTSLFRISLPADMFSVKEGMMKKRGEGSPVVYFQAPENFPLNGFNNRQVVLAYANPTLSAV
Description: Inhibition of Marburg virus VP40 PPxY L-domain motif-Nedd4 interaction in HEK293T cells coexpressing NYFP-Nedd4 and CYFP-mVP40 at 0.1 uM by inverted confocal microscopy based bimolecular complementation assay. As to conditions: HEK-293T. Type of data set: cell-based.

Data set [5] concerns HEK-293T. The data set can be described thus: Inhibition of Ebola virus VP40 PPxY L-domain motif expressed in HEK293T cells assessed as reduction in VLP budding at 100 nM after 24 hrs by Western blot analysis relative to control. Type of data set: cell-based. As to conditions: Ebolavirus. For orientation: Immunoblotting shows a protein as a band on a membrane.
The test system of data set [6] is Vesicular stomatitis virus. Description: Effect on viral protein levels in recombinant Vesicular stomatitis virus-M40 expressing Ebola virus VP40 PPxY L-domain motif infected in HEK293T cells at 30 to 100 nM after 8 hrs by Western blot analysis relative to control. As to conditions: hek-293t, 0.1 µM. Type of data set: ADME, organism-based.
For data set [7], the target named is T1, Matrix protein VP40 (Lake Victoria marburgvirus (strain Ravn-87) (MARV) (Marburg virus (strainKenya/Ravn/1987))). Description: Inhibition of Marburg virus VP40 PPxY L-domain motif expressed in HEK293T cells assessed as reduction in VLP budding at 0.03 uM relative to control. Type of data set: cell-based. As to conditions: HEK-293T.
Data set [8] in a line: Cytotoxicity against human HEK293T cells assessed as cell viability at 0.1 uM after 24 hrs by MTT assay relative to control. Type of data set: cell-based, HEK-293T. To be noted: read-out: Activity.
The test system of data set [9] is Liver microsome. The data set can be described thus: Half life in human liver microsomes. Type of data set: ADME. (In general: Microsomes from liver hold many membrane-bound enzymes, among them those of drug oxidation.)
A short description of data set [10]: Half life in mouse liver microsomes. Type of data set: ADME.
Data set [11] concerns the target T1, Matrix protein VP40 (Lake Victoria marburgvirus (strain Ravn-87) (MARV) (Marburg virus (strainKenya/Ravn/1987))). Description: Inhibition of Marburg virus VP40 PPxY L-domain motif expressed in HEK293T cells assessed as reduction in VLP budding at 100 nM after 24 hrs by Western blot analysis. Type of data set: cell-based. To be noted: HEK-293T.
For data set [12] the target is unchanged. Description: Inhibition of Marburg virus VP40 PPxY L-domain motif expressed in HEK293T cells assessed as reduction in VLP budding at 30 nM after 24 hrs by Western blot analysis relative to control. Type of data set: cell-based. As to conditions: HEK-293T.
The target of data set [13] is Cytochrome P450 3A4 (Homo sapiens, UniProt P08684). The data set can be described thus: Inhibition of CYP3A4 (unknown origin) using midazolam as substrate. Type of data set: ADME.
Sequence of Cytochrome P450 3A4 (P08684 whole entry): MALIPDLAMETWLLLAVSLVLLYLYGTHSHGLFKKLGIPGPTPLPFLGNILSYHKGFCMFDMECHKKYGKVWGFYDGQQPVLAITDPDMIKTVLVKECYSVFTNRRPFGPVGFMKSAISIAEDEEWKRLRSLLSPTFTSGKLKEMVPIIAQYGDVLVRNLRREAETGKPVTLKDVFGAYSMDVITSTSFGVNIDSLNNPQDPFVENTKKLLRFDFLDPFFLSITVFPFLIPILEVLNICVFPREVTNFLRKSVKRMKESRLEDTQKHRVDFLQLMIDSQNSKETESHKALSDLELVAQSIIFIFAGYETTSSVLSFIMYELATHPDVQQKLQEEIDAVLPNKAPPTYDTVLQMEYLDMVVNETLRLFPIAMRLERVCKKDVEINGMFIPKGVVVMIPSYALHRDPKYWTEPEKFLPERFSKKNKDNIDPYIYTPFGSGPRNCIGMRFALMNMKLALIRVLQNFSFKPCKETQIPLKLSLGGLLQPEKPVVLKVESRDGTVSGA
For data set [14], the target named is T1, Matrix protein VP40 (Lake Victoria marburgvirus (strain Ravn-87) (MARV) (Marburg virus (strainKenya/Ravn/1987))). The data set can be described thus: Inhibition of Marburg virus VP40 PPxY L-domain motif expressed in HEK293T cells assessed as reduction in VLP budding at 0.1 uM relative to control. Type of data set: cell-based. To be noted: HEK-293T.
The nature of data set [15]: Cytotoxicity against human HEK293T cells assessed as cell viability at 0.01 uM after 24 hrs by MTT assay relative to control. To be noted: read-out: Activity. Type of data set: cell-based, HEK-293T.
Data set [16] is described as follows: Effect on cellular protein levels in human HEK293T cells infected with recombinant Vesicular stomatitis virus-M40 expressing Ebola virus VP40 PPxY L-domain motif at 30 to 100 nM after 8 hrs by Western blot analysis relative to control. Type of data set: ADME, cell-based. To be noted: hek-293t, 0.1 µM.
The test system of data set [17] is Liver microsome. The data set can be described thus: Intrinsic clearance in human liver microsomes assessed per mg of protein. Type of data set: ADME.
Data set [18] is described as follows: Cytotoxicity against African green monkey Vero E6 cells assessed as cell viability at 0.01 uM after 24 hrs by MTT assay relative to control. Type of data set: cell-based. To be noted: chlorocebus sabaeus, read-out: Activity.
The nature of data set [19]: Cytotoxicity against human HEK293T cells assessed as cell viability at 1 uM after 24 hrs by MTT assay relative to control. Type of data set: cell-based, HEK-293T. To be noted: read-out: Activity.
The subject of data set [20] is HEK-293T. The data set can be described thus: Inhibition of Ebola virus VP40 PPxY L-domain motif expressed in HEK293T cells assessed as reduction in VLP budding at 30 nM after 24 hrs by Western blot analysis relative to control. To be noted: Ebolavirus. Type of data set: cell-based.
The nature of data set [21]: Cytotoxicity against African green monkey Vero E6 cells assessed as cell viability at 0.1 uM after 24 hrs by MTT assay relative to control. To be noted: chlorocebus sabaeus, read-out: Activity. Type of data set: cell-based.
The target in data set [22] is T1, Matrix protein VP40 (Lake Victoria marburgvirus (strain Ravn-87) (MARV) (Marburg virus (strainKenya/Ravn/1987))). Description: Inhibition of Marburg virus VP40 PPxY L-domain motif expressed in HEK293T cells assessed as reduction in VLP budding at 1 uM relative to control. Type of data set: cell-based. As to conditions: HEK-293T.
The target is the same in data set [23]. The data set can be described thus: Inhibition of Marburg virus VP40 PPxY L-domain motif expressed in HEK293T cells assessed as reduction in VLP budding at 1 uM after 24 hrs by Western blot analysis relative to control. Type of data set: cell-based. As to conditions: HEK-293T.
Data set [24] shares this target. The data set can be described thus: Inhibition of Marburg virus VP40 PPxY L-domain motif expressed in HEK293T cells assessed as reduction in VLP budding at 25 uM relative to control. As to conditions: HEK-293T. Type of data set: cell-based.
Data set [25] shares this target. Description: Inhibition of Marburg virus VP40 PPxY L-domain motif expressed in HEK293T cells assessed as reduction in VLP budding at 0.3 uM relative to control. Type of data set: cell-based. As to conditions: HEK-293T.
Data set [26] is described as follows: Intrinsic clearance in mouse liver microsomes assessed per mg of protein. Type of data set: ADME.
Data set [27] has as its target T1, Matrix protein VP40 (Lake Victoria marburgvirus (strain Ravn-87) (MARV) (Marburg virus (strainKenya/Ravn/1987))). Description: Inhibition of Marburg virus VP40 PPxY L-domain motif expressed in HEK293T cells assessed as reduction in VLP budding at 10 uM relative to control. Type of data set: cell-based. To be noted: HEK-293T.

Take `Cc1nc2ccccc2nc1SCC(=O)NC(=O)Nc1ccccc1Cl`: the figures for the viability at 24 h, 10 µM in [1] and in [2] were 65.4% and 80.9%, respectively. Moreover, the viability at 24 h, 1 µM worked out at 79.1% in [3] and 63.9% in data set [19]. The inhibition entry in data set [4], in [5], in data set [11], in [12] and in data set [20] was “Active” in each case. The Activity result in [6] and in data set [16] was “Non-toxic” in each case. Moreover, the inhibition was 93% in data set [7] and 99% in data set [14]. In addition, the viability at 24 h, 0.1 µM was 69.3% in data set [8] and 101% in data set [21]. The figures for the t1/2 in data set [9] and in [10] were 76.1 min and 2 min, respectively. Moreover, the IC50 in [13] is over 33 µM. In addition, the viability at 24 h, 0.01 µM in [15] was found to be 96.9%; in data set [18] it was 101%. For the same compound, the Intrinsic clearance in [17] stood at 0.72 mL/min.

With `Cc1nc2ccccc2nc1SCC(=O)NC(=O)Nc1ccccc1`, the inhibition in data set [22] amounted to 88%. Moreover, in [9], the t1/2 was 43.9 min. Further, the fold change (FC) in [23] was 100. In addition, in [17], the Intrinsic clearance was 1.66 mL/min.

With `CCNC(=O)NC(=O)CSc1nc2ccccc2nc1C`, the inhibition entry in [22] and in [14] was “inactive” each time. Besides, in data set [24], the inhibition is 60%.

For `Cc1ccc(NC(=O)NC(=O)CSc2nc3ccccc3nc2C)cc1`, the viability at 24 h, 10 µM stood at 52.8% in [1] and 69.8% in data set [2]. In addition, the inhibition was 100% in data set [25]; 100% in [22]; 93% in [7]; over 90% in [11]; 100% in data set [14]. Moreover, the viability at 24 h, 1 µM in data set [3] is 78.5%; in data set [19], 61.8%. This compound also came in with a CLH in data set [26] of over 50 mL/min. The values for the viability at 24 h, 0.1 µM in data set [8] and in data set [21] were 81.9% and 93.9%, respectively. The results for the t1/2 in data set [9] and in data set [10] were 57.7 min and under 1.4 min, respectively. Moreover, in [12], the fold change (FC) turned out to be 15. Further, in data set [13], the IC50 is over 33 µM. The viability at 24 h, 0.01 µM is 98.3% in data set [15] and 98.4% in [18]. This compound also had an Intrinsic clearance in data set [17] of 0.95 mL/min.

Turning to `Cc1nc2ccccc2nc1SCC(=O)NC(=O)NC1CC1`, the inhibition entry in [22] and in data set [14] was “inactive” each time. In addition, in [27], the inhibition is 60%.

Regarding `Cc1nc2ccccc2nc1SCC(=O)NC(=O)Nc1cccc(F)c1C`, the viability at 24 h, 10 µM in data set [1] is 63.5%; in data set [2], 84%. For the same compound, the viability at 24 h, 1 µM came to 78.7% in data set [3] and 60.1% in data set [19]. Also, in data set [4], the inhibition result was “Active”. For the same compound, the Activity entry in data set [6] and in data set [16] was “Non-toxic” in each case. Besides, the inhibition is 86% in [7] and 100% in data set [14]. For the same compound, the values for the viability at 24 h, 0.1 µM in [8] and in data set [21] were 70.4% and 92.6%, respectively. Further, the t1/2 is on record as over 90 min in data set [9] and 3.5 min in [10]. In [13], the half-inhibitory concentration (IC50) was over 33 µM. The viability at 24 h, 0.01 µM was determined as 95.1% in data set [15] and 102% in [18]. Moreover, the Intrinsic clearance in data set [17] was 0.54 mL/min.
